Blank lines part the entries; values can stand above or below the compound they belong to.
Key:
Assay type in all cases: cell-based
[1] = tested on: Enterococcus faecium NCTC 7 171; assay: Peptidase detection on Columbia medium (Example 2); design: key to Growth: NG: No growth; 0.5: weak growth; 1: moderate growth; 2: good growth; key to Fluo. / Color / Color post-acid.: —: no color; conditions: 80 mg in 400 ml Columbia; 24 h 37° C.
Description: (§2) The 6 media were distributed into Petri dishes 90 mm in diameter, in a proportion of 20 ml per dish.
(§3) Seventeen strains of microorganisms stemming from collections and belonging to various species of bacteria and yeasts are inoculated in spots of approximately 10 000 colony-forming units.
(§4) The media are incubated for 24 hours at 37° C., and then the colonies formed are examined visually, with or without the addition of acid and under a UV lamp at 365 nm.

[2] = tested on: Salmonella typhimurium NCTC 74; assay: Peptidase detection on Columbia medium (Example 2); design: key to Growth: NG: No growth; 0.5: weak growth; 1: moderate growth; 2: good growth; key to Color: —: no color; conditions: 80 mg in 400 ml Columbia; 24 h 37° C.
Description: as §2, §3, §4

[3] = tested on: Bacillus subtilis NCTC 9 372; assay: Peptidase detection on Columbia medium (Example 2); design: key to Growth: NG: No growth; 0.5: weak growth; 1: moderate growth; 2: good growth; conditions: 80 mg in 400 ml Columbia; 24 h 37° C.
[4] = tested on: Candida glabrata NCPF 3 943; assay: Peptidase detection on Columbia medium (Example 2); design: key to Growth: NG: No growth; 0.5: weak growth; 1: moderate growth; 2: good growth; key to Fluo. / Color / Color post-acid.: —: no color; conditions: 80 mg in 400 ml Columbia; 24 h 37° C.
[5] = tested on: Candida albicans ATCC 90 028; assay: Peptidase detection on Columbia medium (Example 2); design: key to Growth: NG: No growth; 0.5: weak growth; 1: moderate growth; 2: good growth; key to Fluo. / Color / Color post-acid.: —: no color; conditions: 80 mg in 400 ml Columbia; 24 h 37° C.
[6] = tested on: Enterobacter cloacae NCTC 11 936; assay: Peptidase detection on Columbia medium (Example 2); design: key to Growth: NG: No growth; 0.5: weak growth; 1: moderate growth; 2: good growth; conditions: 80 mg in 400 ml Columbia; 24 h 37° C.
[7] = tested on: Streptococcus pyogenes NCTC 8 306; assay: Peptidase detection on Columbia medium (Example 2); design: key to Fluo. / Color / Color post-acid.: —: no color; conditions: 80 mg in 400 ml Columbia; 24 h 37° C.
Description: as §2, §3, §4

[8] = tested on: Pseudomonas aeruginosa NCTC 10 662; assay: Peptidase detection on Columbia medium (Example 2); design: key to Growth: NG: No growth; 0.5: weak growth; 1: moderate growth; 2: good growth; conditions: 80 mg in 400 ml Columbia; 24 h 37° C.
Description: as §2, §3, §4

[9] = tested on: Staphylococcus aureus NCTC 11 939; assay: Peptidase detection on Columbia medium (Example 2); design: key to Growth: NG: No growth; 0.5: weak growth; 1: moderate growth; 2: good growth; conditions: 80 mg in 400 ml Columbia; 24 h 37° C.
[10] = tested on: Listeria monocytogenes NCTC 11 994; assay: Peptidase detection on Columbia medium (Example 2); design: key to Growth: NG: No growth; 0.5: weak growth; 1: moderate growth; 2: good growth; key to Fluo. / Color / Color post-acid.: —: no color; conditions: 80 mg in 400 ml Columbia; 24 h 37° C.
[11] = tested on: Serratia marcescens NCTC 10 211; assay: Peptidase detection on Columbia medium (Example 2); design: key to Growth: NG: No growth; 0.5: weak growth; 1: moderate growth; 2: good growth; conditions: 80 mg in 400 ml Columbia; 24 h 37° C.
Description: as §2, §3, §4

[12] = tested on: Enterococcus faecalis NCTC 775; assay: Peptidase detection on Columbia medium (Example 2); design: key to Growth: NG: No growth; 0.5: weak growth; 1: moderate growth; 2: good growth; key to Fluo. / Color / Color post-acid.: —: no color; conditions: 80 mg in 400 ml Columbia; 24 h 37° C.
[13] = tested on: Staphylococcus aureus NCTC 6 571; assay: Peptidase detection on Columbia medium (Example 2); design: key to Growth: NG: No growth; 0.5: weak growth; 1: moderate growth; 2: good growth; key to Fluo. / Color / Color post-acid.: —: no color; conditions: 80 mg in 400 ml Columbia; 24 h 37° C.
Description: as §2, §3, §4

[14] = tested on: Escherichia coli NCTC 10 418; assay: Peptidase detection on Columbia medium (Example 2); design: key to Growth: NG: No growth; 0.5: weak growth; 1: moderate growth; 2: good growth; conditions: 80 mg in 400 ml Columbia; 24 h 37° C.
Description: as §2, §3, §4

[15] = tested on: Yersinia enterocolitica NCTC 11 176; assay: Peptidase detection on Columbia medium (Example 2); design: key to Growth: NG: No growth; 0.5: weak growth; 1: moderate growth; 2: good growth; key to Color: —: no color; conditions: 80 mg in 400 ml Columbia; 24 h 37° C.
[16] = tested on: Providencia rettgeri NCTC 7 475; assay: Peptidase detection on Columbia medium (Example 2); design: key to Growth: NG: No growth; 0.5: weak growth; 1: moderate growth; 2: good growth; key to Color: —: no color; conditions: 80 mg in 400 ml Columbia; 24 h 37° C.
Description: as §2, §3, §4

[17] = tested on: Staphylococcus epidermidis NCTC 11 047; assay: Peptidase detection on Columbia medium (Example 2); design: key to Fluo. / Color / Color post-acid.: —: no color; conditions: 80 mg in 400 ml Columbia; 24 h 37° C.
[18] = tested on: Listeria monocytogenes 8812049; assay: Peptidase detection on Columbia medium (Example 4); conditions: 75 mg/l, 48 h 37° C.
Source text: (§1) After homogenization, the media were distributed into 120-mm-squared dishes. A medium serving as a growth control (Columbia) and denoted C was also poured.

[19] = tested on: Citrobacter freundii 0006197; assay: Peptidase detection on Columbia medium (Example 4); conditions: 75 mg/l, 48 h 37° C.
Source text: as §1

[20] = tested on: Salmonella ser typhimurium 0801029; assay: Peptidase detection on Columbia medium (Example 4); conditions: 75 mg/l, 48 h 37° C.
Source text: as §1

[21] = tested on: Providencia rettgeri 0706064; assay: Peptidase detection on Columbia medium (Example 4); conditions: 75 mg/l, 48 h 37° C.
Source text: as §1

[22] = tested on: Burkholderia cepacia 7507032; assay: Peptidase detection on Columbia medium (Example 4); conditions: 75 mg/l, 48 h 37° C.
Source text: as §1

[23] = tested on: Morganella morganii 9207053; assay: Peptidase detection on Columbia medium (Example 4); conditions: 75 mg/l, 48 h 37° C.
Source text: as §1

[24] = tested on: Yersinia enterocolitica 7605019; assay: Peptidase detection on Columbia medium (Example 4); conditions: 75 mg/l, 48 h 37° C.
Source text: as §1

Escherichia coli 0002005 = assay: Peptidase detection on Columbia medium (Example 4); conditions: 75 mg/l, 48 h 37° C.
Source text: as §1

[25] = tested on: Pseudomonas aeruginosa 0001001; assay: Peptidase detection on Columbia medium (Example 4); conditions: 75 mg/l, 48 h 37° C.
Source text: as §1

[26] = tested on: Staphylococcus epidermidis 0203050; assay: Peptidase detection on Columbia medium (Example 4); conditions: 75 mg/l, 48 h 37° C.
Source text: as §1

[27] = tested on: Acinetobacter baumannii 0604029; assay: Peptidase detection on Columbia medium (Example 4); conditions: 75 mg/l, 48 h 37° C.
Source text: as §1

MRSA 0303033 = assay: Peptidase detection on Columbia medium (Example 4); conditions: 75 mg/l, 48 h 37° C.
Source text: as §1

[28] = tested on: Enterococcus faecalis 0008192; assay: Peptidase detection on Columbia medium (Example 4); conditions: 75 mg/l, 48 h 37° C.
Source text: as §1

[29] = tested on: Klebsiella pneumoniae 0008009; assay: Peptidase detection on Columbia medium (Example 4); conditions: 75 mg/l, 48 h 37° C.
Source text: as §1

[30] = tested on: Enterococcus faecium 0610021; assay: Peptidase detection on Columbia medium (Example 4); conditions: 75 mg/l, 48 h 37° C.
Source text: as §1

[31] = tested on: Staphylococcus aureus 7811049; assay: Peptidase detection on Columbia medium (Example 4); conditions: 75 mg/l, 48 h 37° C.
Source text: as §1

[32] = tested on: Serratia marcescens 7303004; assay: Peptidase detection on Columbia medium (Example 4); conditions: 75 mg/l, 48 h 37° C.
Source text: as §1

[33] = tested on: Bacillus subtilis 0204038; assay: Peptidase detection on Columbia medium (Example 4); conditions: 75 mg/l, 48 h 37° C.
Source text: as §1

[34] = tested on: Streptococcus pyogenes 9806380; assay: Peptidase detection on Columbia medium (Example 4); conditions: 75 mg/l, 48 h 37° C.
Source text: as §1

Candida albicans 0801025 = assay: Peptidase detection on Columbia medium (Example 4); conditions: 75 mg/l, 48 h 37° C.
Source text: as §1

Candida glabrata 0408083 = assay: Peptidase detection on Columbia medium (Example 4); conditions: 75 mg/l, 48 h 37° C.
Source text: as §1

[35] = tested on: Enterobacter cloacae 0604040; assay: Peptidase detection on Columbia medium (Example 4); conditions: 75 mg/l, 48 h 37° C.
Source text: as §1

Color [1]: —
Growth [1]: 2
Color [2]: —
Growth [2]: 2
Color [3]: Orange
Growth [3]: 2
Color [6]: Pale orange
Growth [6]: 2
Color [7]: —
Color [8]: Pale orange
Growth [8]: 2
Color [10]: —
Growth [10]: 2
Color [11]: Pale orange
Growth [11]: 2
Color [12]: —
Growth [12]: 2
SMILES: C[n+]1ccc(C=Cc2ccc(NC(=O)[C@@H](N)CC(N)=O)cc2)c2ccccc21.O=C(O)C(F)(F)F.O=C([O-])C(F)(F)F [Asn-ASQM^+, L-asparaginyl-4-(4′-amidostyryl)-N-methylquinolinium-bis-TFA]
Color [4]: —
Growth [4]: 0.5
Color [5]: —
Growth [5]: 2
Color [9]: Orange
Growth [9]: 2
Color [13]: —
Growth [13]: 0.5
Color [14]: Pale orange
Growth [14]: 2
Color [15]: —
Growth [15]: 2
Color [16]: —
Growth [16]: 2
Color [17]: —

Color [18]: orange
Coloration strength [18]: +
Growth ([18]; control C: ++): ++
Color [19]: −
Coloration strength [19]: −
Growth ([19]; control C: ++): ++
Color [20]: −
Coloration strength [20]: −
Growth ([20]; control C: ++): ++
Color [22]: −
Coloration strength [22]: −
Growth ([22]; control C: ++): ++
Color [23]: −
Coloration strength [23]: −
Growth ([23]; control C: ++): ++
Color [25]: −
Coloration strength [25]: −
Growth ([25]; control C: ++): ++
Color [27]: orange
Coloration strength [27]: +
Growth ([27]; control C: ++): ++
Color (MRSA 0303033): −
Coloration strength (MRSA 0303033): −
Growth (MRSA 0303033; control C: ++): ++
Color [28]: −
Coloration strength [28]: −
Growth ([28]; control C: ++): ++
Color [29]: orange
Coloration strength [29]: +
Growth ([29]; control C: ++): ++
Color [30]: −
Coloration strength [30]: −
Growth ([30]; control C: ++): ++
Color [32]: orange
Coloration strength [32]: +
Growth ([32]; control C: ++): ++
Color [33]: −
Coloration strength [33]: −
Growth ([33]; control C: ++): ++
Color [34]: orange
Coloration strength [34]: +
Growth ([34]; control C: ++): ++
Color [35]: orange
Coloration strength [35]: +
Growth ([35]; control C: ++): ++
SMILES: C[C@H](N)C(=O)N[C@@H](C)C(=O)Nc1ccc(C=Cc2cc[n+](C)c3ccccc23)cc1.Cl.[Cl-] [L-alanyl-L-alanyl-4-(4′-amidostyryl)-N-methylquinolinium (dichloride)]
Color [21]: −
Coloration strength [21]: −
Growth ([21]; control C: ++): ++
Color [24]: −
Coloration strength [24]: −
Growth ([24]; control C: ++): ++
Color (Escherichia coli 0002005): −
Coloration strength (Escherichia coli 0002005): −
Growth (Escherichia coli 0002005; control C: ++): ++
Color [26]: −
Coloration strength [26]: −
Growth ([26]; control C: ++): ++
Color [31]: −
Coloration strength [31]: −
Growth ([31]; control C: ++): ++
Coloration strength (Candida albicans 0801025): −
Growth (Candida albicans 0801025; control C: ++): +
Coloration strength (Candida glabrata 0408083): −
Growth (Candida glabrata 0408083; control C: +): −
